Reference: PubChem BioAssay (NCI)
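Protocol summary: plate cells (96-well), add compound at 5 concentrations, incubate 48 h, interpolate endpoints linearly. TGI: total growth inhibition.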

Tests used:
Assay in all cases: NCI tumour cell line growth inhibition, 48 h
NCI-H460 lung = tested on: NCI-H460 lung
OVCAR-4 ovarian = tested on: OVCAR-4 ovarian
UACC-257 melanoma = tested on: UACC-257 melanoma
SK-MEL-28 melanoma = tested on: SK-MEL-28 melanoma
RPMI-8226 leukemia = tested on: RPMI-8226 leukemia
A549 NSCLC = tested on: A549 NSCLC
UO-31 renal = tested on: UO-31 renal
MDA-N = tested on: MDA-N
DU-145 prostate = tested on: DU-145 prostate
HS 578T breast = tested on: HS 578T breast

Row | Structure (SMILES) | TGI (NCI-H460 lung) [µM] | TGI (OVCAR-4 ovarian) [µM] | TGI (UACC-257 melanoma) [µM] | TGI (SK-MEL-28 melanoma) [µM] | TGI (RPMI-8226 leukemia) [µM] | TGI (A549 NSCLC) [µM] | TGI (UO-31 renal) [µM] | TGI (MDA-N) [µM] | TGI (DU-145 prostate) [µM] | TGI (HS 578T breast) [µM]
1 | C=CC[C@@]1(C#N)C[C@H](C[C@]2(C#N)C[C@H](CCl)OC(C)(C)O2)OC(C)(C)O1 | > 100 | > 100 | > 100 | > 100 | > 100 | > 100 | > 100 |  |  | 
2 | CCC(C)N1CN(c2ccccc2)C2(CCN(CCCC(=O)c3ccc(F)cc3)CC2)C1=O (centres undefined) |  | 16.2 |  | 32.1 | 31.5 | 20.4 | 15.6 | 25.5 | 13.4 | 36.4
3 | COc1ccc(C2c3c(-c4ccccc4)nn(-c4ccccc4)c3Oc3ncn(N)c(=N)c32)cc1OC (centres undefined) | 3.27 | 7.33 | 3.82 | 4.29 | > 25.1 | 4.81 | 3.84 |  | 8.78 | 4.37
4 | O=c1cc(-c2ccc[nH]2)[nH]c2cc3c(cc12)OCO3 | > 100 | 56 | > 100 | > 100 | > 100 | > 100 | > 100 |  |  | 
5 | O=C(O)C1C2CCC(C2)C1c1ccccc1 (centres undefined) | > 100 |  | > 100 | > 100 | > 100 | > 100 | > 100 | > 100 | > 100 | > 100
6 | CCOC(=S)SC/C(=N\OC(C)(C)OC)c1ccccc1 | > 100 | > 100 | > 100 | > 100 |  | > 100 | 95.8 | > 100 | > 100 | > 100
7 | FC(F)(F)c1nc2cc(SSc3cc4nc(C(F)(F)F)[nH]c4cc3Cl)c(Cl)cc2[nH]1 | > 100 | > 100 | > 100 | > 100 | > 100 | > 100 |  |  | > 100 | > 100
8 | CC1(C)C(C(=O)OC(C#N)c2cccc(OCC(=O)OCc3ccccc3)c2)C1(C)C (centres undefined) | > 100 | > 100 | > 100 | > 100 |  | > 100 | > 100 | > 100 | > 100 | > 100
9 | CCOC(=O)CCc1c(C)c2c(O)cc(O)cc2oc1=O | > 100 | > 100 | > 100 | > 100 | > 100 | > 100 | > 100 |  |  | 
10 | O=C(O)C1Cc2ccccc2OC1=O (centres undefined) | > 100 |  | > 100 | > 100 | > 100 | > 100 | > 100 |  | > 100 | > 100
11 | CNc1nc(=O)c(C#N)c(-c2ccc(C)cc2)s1 | > 100 | > 100 | > 100 | > 100 |  | > 100 | > 100 | > 100 | > 100 | 
